PubChem BioAssay AID328 (DTP/NCI, 2004)
“And” between values parts separate entries of the source, which are not always exact repeats. Equal entries are not always repeated. Toxic doses and inconclusive results are not listed.

Test system: BDF1 mice, P388 leukemia ip, median survival T/C
Assay: NCI In Vivo Anticancer Drug Screen. Data for tumor model P388 Leukemia (intraperitoneal) in B6D2F1 (BDF1) mice
Conditions: endpoint: median survival time, higher = longer survival
Method in brief: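 Each value expresses how treatment altered survival: treated-mouse outcome over vehicle-mouse outcome, both groups bearing the transplanted tumour.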

[1] = dose: 25.0 mg/kg/injection, schedule: Q04DX003 (ip), vehicle: saline
[2] = dose: 50.0 mg/kg/injection, schedule: Q04DX003 (ip), vehicle: saline
[3] = dose: 100.0 mg/kg/injection, schedule: Q04DX003 (ip), vehicle: saline with Tween-80
[4] = dose: 200.0 mg/kg/injection, schedule: Q04DX003 (ip), vehicle: saline with Tween-80
[5] = dose: 400.0 mg/kg/injection, schedule: Q04DX003 (ip), vehicle: saline with Tween-80
[6] = dose: 100.0 mg/kg/injection, schedule: Q04DX003 (ip), vehicle: Klucel (hydroxypropylcellulose) (HPC)
[7] = dose: 200.0 mg/kg/injection, schedule: Q04DX003 (ip), vehicle: Klucel (hydroxypropylcellulose) (HPC)
[8] = dose: 400.0 mg/kg/injection, schedule: Q04DX003 (ip), vehicle: Klucel (hydroxypropylcellulose) (HPC)
[9] = dose: 100.0 mg/kg/injection, schedule: Q01DX009 (ip), vehicle: Klucel (hydroxypropylcellulose) (HPC)
[10] = dose: 200.0 mg/kg/injection, schedule: Q01DX009 (ip), vehicle: Klucel (hydroxypropylcellulose) (HPC)
[11] = dose: 400.0 mg/kg/injection, schedule: Q01DX009 (ip), vehicle: Klucel (hydroxypropylcellulose) (HPC)
[12] = dose: 100.0 mg/kg/injection, schedule: Q04DX003 (ip), vehicle: saline
[13] = dose: 200.0 mg/kg/injection, schedule: Q04DX003 (ip), vehicle: saline
[14] = dose: 50.0 mg/kg/injection, schedule: Q01DX009 (ip), vehicle: saline with Tween-80
[15] = dose: 100.0 mg/kg/injection, schedule: Q01DX009 (ip), vehicle: saline with Tween-80
[16] = dose: 200.0 mg/kg/injection, schedule: Q01DX009 (ip), vehicle: saline with Tween-80

CC(C)C(Br)C(N)=O (centres undefined)
T/C (dose: 12.5 mg/kg/injection, schedule: Q04DX003 (ip), vehicle: saline): 104 % of control
T/C [1]: 109 % of control
T/C [2]: 109 % of control

c1ccc(Sc2c(Sc3ccccc3)c(Sc3ccccc3)c(Sc3ccccc3)c(Sc3ccccc3)c2Sc2ccccc2)cc1
T/C [3]: 99 % of control
T/C [4]: 101 % of control
T/C [5]: 90 % of control

O=C1CN(CCc2ccccc2)CC(=O)N2C(c3ccccc3)CCCN12 (centres undefined)
T/C (dose: 50.0 mg/kg/injection, schedule: Q01DX005 (ip), vehicle: saline with Tween-80): 94 % of control
T/C (dose: 100.0 mg/kg/injection, schedule: Q01DX005 (ip), vehicle: saline with Tween-80): 97 % of control
T/C (dose: 200.0 mg/kg/injection, schedule: Q01DX005 (ip), vehicle: saline with Tween-80): 97 % of control

COc1cc(/C=C(/C)[N+](=O)[O-])cc(Br)c1OC
T/C [3]: 117 % of control

CC(C)(C)S(=O)(=O)CC(=O)Nc1ccccc1
T/C (dose: 100.0 mg/kg/injection, schedule: Q01DX001 (ip), vehicle: saline with Tween-80): 96 % of control
T/C (dose: 200.0 mg/kg/injection, schedule: Q01DX001 (ip), vehicle: saline with Tween-80): 101 % of control
T/C (dose: 400.0 mg/kg/injection, schedule: Q01DX001 (ip), vehicle: saline with Tween-80): 96 % of control

Oc1ccc(C2N(c3ccccc3)CCN2c2ccccc2)cc1
T/C [3]: 110 % of control
T/C [4]: 86 % of control

c1ccc(C2=C(c3ccccc3)c3cccc4cccc2c34)cc1
T/C (dose: 100.0 mg/kg/injection, schedule: Q01DX001 (ip), vehicle: Klucel (hydroxypropylcellulose) (HPC)): 95 % of control and 110 % of control
T/C [6]: 115 % of control
T/C (dose: 200.0 mg/kg/injection, schedule: Q01DX001 (ip), vehicle: Klucel (hydroxypropylcellulose) (HPC)): 105 % of control
T/C [7]: 120 % of control
T/C (dose: 400.0 mg/kg/injection, schedule: Q01DX001 (ip), vehicle: Klucel (hydroxypropylcellulose) (HPC)): 95 % of control and 105 % of control
T/C [8]: 110 % of control

Nc1ccc(Cl)cc1C(=O)c1ccc[nH]1
T/C [9]: 100 % of control
T/C [6]: 100 % of control
T/C [10]: 95 % of control
T/C [7]: 100 % of control
T/C [11]: 100 % of control
T/C [8]: 95 % of control

CCOC(=O)c1nc(NC)sc1N
T/C [1]: 97 % of control
T/C [2]: 100 % of control
T/C [12]: 105 % of control
T/C [13]: 96 % of control

C=CCN(CC=C)C(=O)OCC
T/C [3]: 100 % of control
T/C [4]: 120 % of control
T/C [5]: 104 % of control

CCOc1cccc(OCC)c1C
T/C (dose: 75.0 mg/kg/injection, schedule: Q01DX009 (ip), vehicle: Klucel (hydroxypropylcellulose) (HPC)): 100 % of control
T/C (dose: 150.0 mg/kg/injection, schedule: Q01DX009 (ip), vehicle: Klucel (hydroxypropylcellulose) (HPC)): 100 % of control
T/C (dose: 300.0 mg/kg/injection, schedule: Q01DX009 (ip), vehicle: Klucel (hydroxypropylcellulose) (HPC)): 100 % of control

O=C(c1ccccc1Cl)n1c2c(c3ccccc31)CCCC2
T/C [3]: 100 % of control
T/C [4]: 104 % of control
T/C [5]: 100 % of control

CC(=O)Nc1cc(F)c([N+](=O)[O-])cc1[N+](=O)[O-]
T/C (dose: 0.62 mg/kg/injection, schedule: Q01DX009 (ip), vehicle: saline): 115 % of control
T/C (dose: 1.25 mg/kg/injection, schedule: Q01DX009 (ip), vehicle: saline): 100 % of control
T/C (dose: 2.5 mg/kg/injection, schedule: Q01DX009 (ip), vehicle: Klucel (hydroxypropylcellulose) (HPC)): 105 % of control
T/C (dose: 2.5 mg/kg/injection, schedule: Q01DX009 (ip), vehicle: saline): 300 % of control and 100 % of control
T/C (dose: 5.0 mg/kg/injection, schedule: Q01DX009 (ip), vehicle: Klucel (hydroxypropylcellulose) (HPC)): 115 % of control
T/C (dose: 5.0 mg/kg/injection, schedule: Q01DX009 (ip), vehicle: saline): 300 % of control and 110 % of control
T/C (dose: 10.0 mg/kg/injection, schedule: Q01DX009 (ip), vehicle: Klucel (hydroxypropylcellulose) (HPC)): 100 % of control
T/C (dose: 10.0 mg/kg/injection, schedule: Q01DX009 (ip), vehicle: saline): 300 % of control and 105 % of control
T/C (dose: 20.0 mg/kg/injection, schedule: Q01DX009 (ip), vehicle: Klucel (hydroxypropylcellulose) (HPC)): 110 % of control
T/C (dose: 20.0 mg/kg/injection, schedule: Q01DX009 (ip), vehicle: saline): 95 % of control

COc1ccccc1NC(=O)c1ccc(Cl)cc1Cl
T/C (dose: 25.0 mg/kg/injection, schedule: Q01DX009 (ip), vehicle: Klucel (hydroxypropylcellulose) (HPC)): 116 % of control
T/C (dose: 50.0 mg/kg/injection, schedule: Q01DX009 (ip), vehicle: Klucel (hydroxypropylcellulose) (HPC)): 122 % of control
T/C [9]: 122 % of control
T/C [6]: 100 % of control
T/C [10]: 104 % of control
T/C [7]: 95 % of control
T/C [11]: 104 % of control
T/C [8]: 104 % of control

O=C(O)C1CCSS1 (centres undefined)
T/C (dose: 0.19 mg/kg/injection, schedule: Q01DX009 (ip), vehicle: saline): 100 % of control
T/C (dose: 0.39 mg/kg/injection, schedule: Q01DX009 (ip), vehicle: saline): 91 % of control
T/C (dose: 0.78 mg/kg/injection, schedule: Q01DX009 (ip), vehicle: saline): 90 % of control and 117 % of control
T/C (dose: 1.56 mg/kg/injection, schedule: Q01DX009 (ip), vehicle: saline): 96 % of control and 99 % of control
T/C (dose: 3.12 mg/kg/injection, schedule: Q01DX009 (ip), vehicle: saline): 94 % of control
T/C (dose: 6.25 mg/kg/injection, schedule: Q01DX009 (ip), vehicle: saline): 94 % of control
T/C (dose: 12.5 mg/kg/injection, schedule: Q01DX009 (ip), vehicle: saline): 102 % of control and 106 % of control and 108 % of control
T/C (dose: 50.0 mg/kg/injection, schedule: Q01DX009 (ip), vehicle: saline): 87 % of control and 89 % of control
T/C [2]: 103 % of control
T/C [12]: 101 % of control

ClC(Cl)(Cl)SSC(=Nc1ccccc1)SSC(Cl)(Cl)Cl
T/C [14]: 106 % of control
T/C [15]: 117 % of control

Nc1nc(N)nc(-c2ccc([N+](=O)[O-])o2)n1
T/C [15]: 102 % of control
T/C [16]: 96 % of control
T/C (dose: 400.0 mg/kg/injection, schedule: Q01DX009 (ip), vehicle: saline with Tween-80): 106 % of control

CCCCCCC(=O)/C=C/c1cccc(OC)c1
T/C [14]: 90 % of control
T/C [15]: 105 % of control
T/C [16]: 105 % of control

CCCCCCCCC(=O)CCCCC
T/C [12]: 100 % of control
T/C [13]: 91 % of control
T/C (dose: 400.0 mg/kg/injection, schedule: Q04DX003 (ip), vehicle: saline): 95 % of control

NC(=S)N/N=C\c1nccc2c(N)cccc12
T/C (dose: 6.25 mg/kg/injection, schedule: Q01DX009 (ip), vehicle: saline with Tween-80): 186 % of control
T/C (dose: 12.5 mg/kg/injection, schedule: Q01DX009 (ip), vehicle: saline with Tween-80): 191 % of control
T/C (dose: 25.0 mg/kg/injection, schedule: Q01DX009 (ip), vehicle: saline with Tween-80): 195 % of control
T/C [14]: 91 % of control
T/C (dose: 75.0 mg/kg/injection, schedule: Q01DX009 (ip), vehicle: saline with Tween-80): 89 % of control

C=C(Cl)c1c(C)cc(C)c(CC#N)c1C
T/C (dose: 12.5 mg/kg/injection, schedule: Q04DX003 (ip), vehicle: DMSO): 100 % of control
T/C (dose: 25.0 mg/kg/injection, schedule: Q04DX003 (ip), vehicle: DMSO): 113 % of control
T/C (dose: 50.0 mg/kg/injection, schedule: Q04DX003 (ip), vehicle: DMSO): 100 % of control

O=C(C1=Cc2ccccc2OC1)N1CCN(C(=O)C2=Cc3ccccc3OC2)CC1
T/C [3]: 91 % of control
T/C [4]: 91 % of control
T/C [5]: 86 % of control

ClCCCN1CCN(CCCCl)CC1
T/C (dose: 6.25 mg/kg/injection, schedule: Q01DX009 (ip), vehicle: distilled water + alcohol): 101 % of control
T/C (dose: 12.5 mg/kg/injection, schedule: Q01DX009 (ip), vehicle: distilled water + alcohol): 99 % of control
T/C (dose: 25.0 mg/kg/injection, schedule: Q01DX009 (ip), vehicle: distilled water + alcohol): 115 % of control
T/C (dose: 100.0 mg/kg/injection, schedule: Q01DX009 (ip), vehicle: distilled water + alcohol): 171 % of control
